{
  "source": "patent US20260265700A1",
  "about": "“NEURAL BIOHYBRID MANUFACTURED USING REDUCED GRAPHENE OXIDE NANOPARTICLES, NEUROMUSCULAR JUNCTION MODEL USING SAME, AND DRUG SCREENING METHOD USING SAME” (Sogang University Research & Business Development Foundation, priority 2023, published 2026)",
  "system": "NMJs manufactured using ALS neural biohybrids",
  "assay": "Muscle bundle contraction in 3D ALS-neuromuscular junction model",
  "type": "cell-based, human",
  "settings": "ALS-NMJ",
  "description": "First, a hydrogel used for the 3D muscle bundles was prepared using a mixture of 340 μl of C2C12, 30% Matrigel, 250 μl of 16 mg/ml […], 10 μl of thrombin (0.5 U/1 mg fibrinogen) and 100 μl of DMEM.\nAfter culturing for 4 days, the medium was replaced with DMEM supplemented with 2% horse serum, 100 U/mL penicillin-G, 100 μg/mL streptomycin, 1 mg/mL aminocaproic acid, and 1 ng/mL insulin growth factor-1 (IGF-1) as a muscle cell differentiation medium. The medium was changed every 2 days, and differentiation was carried out for 14 days or more.\nThe co-culture differentiation medium, along with muscle differentiation medium, was supplemented with brain-derived and glial cell line-derived neurotrophic factors (10 ng/ml BDNF and 10 ng/ml GDNF) to support viability of multiple neural biohybrids. The differentiation medium was replaced every two days for two weeks.",
  "data": [
    {"smiles": "COc1cc(Nc2c(C#N)cnc3cc(OCCCN4CCN(C)CC4)c(OC)cc23)c(Cl)cc1Cl", "note": "[bosutinib]", "values": [
      {"measurement": "contraction of the muscle bundle relative to muscle movement of normal NMJs", "setting": "after 5 days of treatment, FIG. 3C", "result": "approximately 85%"},
      {"measurement": "concentration giving the greatest recovery of muscle movement", "setting": "various concentrations tested, FIGS. 3D and 3E", "result": 100, "unit": "µM"}
    ]}
  ]
}
